By pIC50 is commonly meant the negative decadic logarithm of the IC50, by convention in mol/L.

Each structure is given as a SMILES string. pIC50: −log10 of the molar value. Numbered stars: 1 amine (or outer) side, 2 acyl side, 3 side chain; on linkers, the order of the positions; unused ones are H or OH. Bridge positions count the residues as written; N and C are the ends. Square brackets hold non-standard residues; d marks the D form. Peptide text beside a SMILES is read from it. X3 = CCc1ccc2c(C[C@H](N[*:1])C(=O)[*:2])c[nH]c2c1; Trp(7-Me) = Cc1cccc2c(C[C@H](N)C(=O)O)c[nH]c12; 2Nal = N[C@@H](Cc1ccc2ccccc2c1)C(=O)O; d2Nal = N[C@H](Cc1ccc2ccccc2c1)C(=O)O; AEF = NCCOc1ccc(C[C@H](N)C(=O)O)cc1; Cit = NC(=O)NCCC[C@H](N)C(=O)O; Pen = CC(C)(S)[C@H](N)C(=O)O; αMeK = C[C@](N)(CCCCN)C(=O)O; Aib = CC(C)(N)C(=O)O

One test concerns the target T1, IL-23R (Homo sapiens, UniProt Q5VWK5).
T1 sequence (Q5VWK5 24-629): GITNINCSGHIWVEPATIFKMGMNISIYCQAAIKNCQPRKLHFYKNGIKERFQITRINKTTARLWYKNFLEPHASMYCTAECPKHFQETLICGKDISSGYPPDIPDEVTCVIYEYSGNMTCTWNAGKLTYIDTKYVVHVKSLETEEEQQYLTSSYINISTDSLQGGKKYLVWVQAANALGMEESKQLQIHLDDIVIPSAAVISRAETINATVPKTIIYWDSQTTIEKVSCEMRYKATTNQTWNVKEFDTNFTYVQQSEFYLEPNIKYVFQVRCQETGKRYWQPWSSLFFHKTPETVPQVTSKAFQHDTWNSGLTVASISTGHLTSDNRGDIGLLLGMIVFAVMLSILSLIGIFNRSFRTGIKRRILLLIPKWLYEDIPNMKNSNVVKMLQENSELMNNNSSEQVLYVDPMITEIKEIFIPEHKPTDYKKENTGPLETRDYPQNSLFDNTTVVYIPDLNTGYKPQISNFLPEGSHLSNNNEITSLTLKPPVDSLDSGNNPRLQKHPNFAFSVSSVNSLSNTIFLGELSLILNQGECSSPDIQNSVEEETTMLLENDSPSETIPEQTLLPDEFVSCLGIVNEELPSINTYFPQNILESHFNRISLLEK
Description: DB cells IL23R pSTAT3 cell assay (pStat3 HTRF). Type of test: cell-based.
Conditions: not given
An excerpt:
Human ELISA indicates the IL23-IL23R competitive binding assay described below, Rat ELISA indicates the rat IL-23R competitive binding ELISA assay described below, and pStat3HTRF indicates the DB cells IL-23R pSTAT3 cell assay described below. The peptides depicted in Table E1 are cyclized via a disulfide bridge formed between two Pen residues in these peptides. The peptides depicted in Table E2 are cyclized via a thioether bond between the indicated amino acid residues. Table E2 provides an illustrative structure depicting thioether cyclization, which is indicated in the table by the term “cyclo,” with the cyclic region bracketed immediately following the term “cyclo.” For certain peptides, the residue Abu is present where indicated, whereas in other embodiments, e.g., those related to the non-cyclized form, the Abu may be referred to as a hSer(Cl) or homoSer residue.
DB Cells IL23R pSTAT3 Cell Assay
IL-23 plays a central role in supporting and maintaining Th17 differentiation in vivo. This process is thought to be mediated primarily through the Signal Transducer and Activator of Transcription 3 (STAT3), with phosphorylation of STAT3 (to yield pSTAT3) leading to upregulation of RORC and pro-inflammatory IL-17. This cell assay examines the levels of pSTAT3 in IL-23R-expressing DB cells when stimulated with IL-23 in the presence of test compounds. Serial dilutions of test peptides and IL-23 (Humanzyme #HZ-1261) at a final concentration of 0.5 nM, were added to each well in a 96 well tissue culture plate (Corning #CLS3894). DB cells (ATCC #CRL-2289), cultured in RPMI-1640 medium (Thermo Scientific #11875093) supplemented with 10% FBS, were added at 5×10E5 cells/well and incubated for 30 minutes at 37° C. in a 5% CO2 humidified incubator. Changes in phospho-STAT3 levels in the cell lysates were detected using the Cisbio HTRF pSTAT3 (Tyr705) Cellular Assay Kit (Cisbio #62AT3PEH), according to manufacturer's Two Plate Assay protocol.
On the technique in general: TR-FRET usually uses a lanthanide donor and a delayed reading to cut background.
The compound `CCc1ccc2c(C[C@@H]3NC(=O)[C@H]([C@@H](C)O)NC(=O)[C@H](CC(N)=O)NC(=O)[C@@H](NC(C)=O)C(C)(C)SSC(C)(C)[C@@H](C(=O)N[C@@H](Cc4ccc(OCCN)cc4)C(=O)N[C@@H](Cc4ccc5ccccc5c4)C(=O)N[C@@](C)(CCCCN)C(=O)N[C@@H](CCCCNC(C)=O)C(=O)N[C@@H](CC(N)=O)C(=O)N[C@H](CCCCN)C(N)=O)NC(=O)[C@H](CCCCNC(C)=O)NC3=O)c[nH]c2c1` [compound 349] (Ac-[Pen]NT[X3]K(Ac)[Pen][AEF][2Nal][αMeK]K(Ac)N[dK]-NH2; disulfide 1-6) had a negative-log IC50 (pIC50) of 8.00 to 9.00.
Take `CC(=O)NCCCC[C@H](NC(=O)[C@](C)(CC(C)C)NC(=O)[C@H](Cc1c[nH]c2ccc(F)cc12)NC(=O)[C@H](Cc1ccc(OCCN)cc1)NC(=O)[C@H]1NC(=O)[C@H](CCC(N)=O)NC(=O)[C@H](Cc2c[nH]c3ccccc23)NC(=O)[C@H]([C@@H](C)O)NC(=O)[C@H](CC(N)=O)NC(=O)[C@@H](NC(C)=O)C(C)(C)SSC1(C)C)C(=O)N[C@@H](CC(N)=O)C(=O)N[C@@H](CC(N)=O)C(N)=O` [compound 18]: the pIC50 was 7.00 to 8.00.
Still for that read-out and setting: then `CC(=O)NCCCC[C@H](NC(=O)[C@](C)(CC(C)C)NC(=O)[C@H](Cc1ccc2ccccc2c1)NC(=O)[C@H](Cc1ccc(OCCN)cc1)NC(=O)[C@H]1NC(=O)[C@H](CCC(N)=O)NC(=O)[C@H](Cc2c[nH]c3ccc(Cl)cc23)NC(=O)[C@H]([C@@H](C)O)NC(=O)[C@H](CC(N)=O)NC(=O)[C@@H](NC(C)=O)C(C)(C)SSC1(C)C)C(=O)N[C@@H](CC(N)=O)C(=O)N[C@@H](CC(N)=O)C(N)=O` [compound 1], with 7.00 to 8.00; and `CC(=O)NCCCC[C@H](NC(=O)[C@](C)(CC(C)C)NC(=O)[C@H](Cc1c[nH]c2c(C)cccc12)NC(=O)[C@H](Cc1ccc(OCCN)cc1)NC(=O)[C@H]1NC(=O)[C@H](CCC(N)=O)NC(=O)[C@H](Cc2c[nH]c3ccccc23)NC(=O)[C@H]([C@@H](C)O)NC(=O)[C@H](CC(N)=O)NC(=O)[C@@H](NC(C)=O)C(C)(C)SSC1(C)C)C(=O)N[C@@H](CC(N)=O)C(=O)N[C@@H](CC(N)=O)C(N)=O` [compound 17], with 7.00 to 8.00.

The test is the same for the next values; noted with them: Table E3; DB cells, IL-23 0.5 nM, 30 minutes at 37° C.; read-out: pStat3 HTRF (IC50).
For the compound `CC(=O)NCCCC[C@H](NC(=O)[C@](C)(CCCCN)NC(=O)[C@H](Cc1ccc2ccccc2c1)NC(=O)[C@H](Cc1ccc(OCCN)cc1)NC(=O)[C@H]1NC(=O)[C@H](CCCNC(N)=O)NC(=O)[C@H](Cc2c[nH]c3c(C)cccc23)NC(=O)[C@H]([C@@H](C)O)NC(=O)[C@H](CC(N)=O)NC(=O)[C@@H](NC(C)=O)C(C)(C)SSC1(C)C)C(=O)N[C@@H](CC(N)=O)C(=O)NC(C)(C)C(=O)N[C@H](Cc1ccc2ccccc2c1)C(N)=O` [compound 348] (Ac-[Pen]NT[Trp(7-Me)][Cit][Pen][AEF][2Nal][αMeK]K(Ac)N[Aib][d2Nal]-NH2; disulfide 1-6), the negative-log IC50 (pIC50) was 8.00 to 9.00.
Still for that read-out and setting: then `CC(=O)NCCCC[C@H](NC(=O)[C@](C)(CCCCN)NC(=O)[C@H](Cc1ccc2ccccc2c1)NC(=O)[C@H](Cc1ccc(OCCN)cc1)NC(=O)[C@H]1NC(=O)[C@H](CCCCNC(=O)CC(F)(F)F)NC(=O)[C@H](Cc2c[nH]c3c(C)cccc23)NC(=O)[C@H]([C@@H](C)O)NC(=O)[C@H](CC(N)=O)NC(=O)[C@@H](NC(C)=O)C(C)(C)SSC1(C)C)C(=O)N[C@@H](CC(N)=O)C(=O)N[C@H](CC(C)C)C(N)=O` [compound 319], with above 9.00; and `CC(=O)NCCCC[C@H](NC(=O)[C@](C)(CCCCN)NC(=O)[C@H](Cc1ccc2ccccc2c1)NC(=O)[C@H](Cc1ccc(OCCN)cc1)NC(=O)[C@H]1NC(=O)[C@H](CCCNC(N)=O)NC(=O)[C@H](Cc2c[nH]c3c(C)cccc23)NC(=O)[C@H]([C@@H](C)O)NC(=O)[C@H](CC(N)=O)NC(=O)[C@@H](NC(C)=O)C(C)(C)SSC1(C)C)C(=O)N[C@@H](CC(N)=O)C(=O)NC(C)(C)C(=O)N[C@H](Cc1ccc(O)cc1)C(N)=O` [compound 347] (Ac-[Pen]NT[Trp(7-Me)][Cit][Pen][AEF][2Nal][αMeK]K(Ac)N[Aib][dY]-NH2; disulfide 1-6), with above 9.00.

For the origin of these results see patent US20260116921A1, “PEPTIDE INHIBITORS OF INTERLEUKIN-23 RECEPTOR AND THEIR USE TO TREAT INFLAMMATORY DISEASES” (priority 2018, published 2026).
